According to the NIST ThermoML archive (doi:10.1016/j.fluid.2007.04.009):

Assays:
[1] = refractive index (Na D-line) (dimensionless); settings: 298.15 K; 101.33 kPa; Liquid; Standard Abbe refractometry
[2] = 298.15 K; for surface tension liquid-gas: Pendant drop shape; for mass density: 101.33 kPa, Liquid
[3] = xn = mol fraction of the nth substance listed; settings: 298.15 K; for surface tension liquid-gas: Pendant drop shape; for mass density: 101.3 kPa, Liquid

CCOC(C)(C)C [2-ethoxy-2-methylpropane]
Settings | mass density [kg/m3] | refractive index | surface tension liquid-gas [mN/m]
[1] | – | 1.37319 | –
[2] | 735.44 | – | 19.73

CCOC(C)(C)C [2-ethoxy-2-methylpropane] + CCCO
[3]
Settings | mass density [kg/m3] | surface tension liquid-gas [mN/m]
x1 = 0.0572 | 795.04 | –
x1 = 0.067 | – | 23.58
x1 = 0.1043 | 791.43 | –
x1 = 0.171 | – | 22.81
x1 = 0.1752 | 786.11 | –
x1 = 0.2085 | 783.67 | –
x1 = 0.27 | 779.29 | –
x1 = 0.315 | – | 22.12
x1 = 0.3317 | 775.03 | –
x1 = 0.3732 | 772.24 | –
x1 = 0.412 | – | 21.48
x1 = 0.4205 | 769.2 | –
x1 = 0.4756 | 765.72 | –
x1 = 0.5326 | 762.15 | –
x1 = 0.5639 | 760.27 | –
x1 = 0.579 | – | 20.81
x1 = 0.621 | 756.93 | –
x1 = 0.682 | 753.59 | –
x1 = 0.7188 | 751.55 | –
x1 = 0.7551 | 749.37 | –
x1 = 0.763 | – | 20.25
x1 = 0.8334 | 745.06 | –
x1 = 0.8737 | 742.66 | –
x1 = 0.9142 | 740.45 | –
x1 = 0.9567 | 737.98 | –

CCCO [propan-1-ol]
Settings | mass density [kg/m3] | refractive index | surface tension liquid-gas [mN/m]
[1] | – | 1.38333 | –
[2] | 799.49 | – | 23.89
